Patent US20260273020A1, “OBESTATIN FOR USE AS ANTINEOPLASTIC AGENT IN THE TREATMENT OF PANCREATIC CANCER” (SERVIZO GALEGO DE SAÚDE, priority 2023, published 2026)

Tests used:
[1] = Pancreatic cancer associated cachexia: skeletal muscle weight, food intake; format: in vivo, C57BL/6J mice; conditions: tumour-bearing mice
Procedure: FIG. 9. Analysis of obestatin action on skeletal muscle cachexia of C57BL/6J mice (n=4) orthotopically injected with KPC FC1242 cells and treated with vehicle [NaCl, 0.9% (w/v)] or obestatin (500 nmol/Kg/72 h). Tibialis anterior (TA), gastrocnemius (GA), soleus (SOL), extensor digitorum longus (EDL) and diaphragm (DIA) muscles were collected and weighted at day 12 after tumour injection. Results are expressed as the percentage of the weight recovery of the muscle of obestatin-treated mice related to vehicle treated mice (mean±SE).
In vivo experiments were carried out in C57BL/6 mice, obtained from the Central Animal Facility of the University of Santiago de Compostela. Male C57BL/6 mice, weighing 25 g on arrival, were housed four per cage at a constant temperature of 22±2° C. and at a 12 h light/dark cycle. The mice were kept for 5 days for acclimation, with free access to water, and a standard mice chow with a composition of 5.5% fat, 23% protein and 70% carbohydrate (SAFE-Panlab, Spain).
The mice were assigned to the different groups (n=4/group) and treated for five days with: 1) healthy control, 2) tumour+vehicle [NaCl, 0.9% (w/v)], and 3) tumour+obestatin (500 nmol/Kg/72 h). Mice without tumoral cells treatment were utilized as healthy controls.
Mice were weighed at set times over the 15-day period. The sterilized surgical material was used for the tissue extraction. Pancreases and muscles were carefully removed from each animal minimizing contamination with surrounding tissue or mouse hair. Pancreases and muscles were weighed. The skeletal muscles selected were: tibialis anterior, TA; extensor digitorum longus, EDL; gastrocnemius, GAST; soleus, SOL; and diaphragm, DIA. Pancreases were also measured with a scale (cm) and pictures were taken. • Histology—Pancreas samples for histology were fixed in 4% paraformaldehyde in PBS at room temperature overnight. After fixation, samples were dehydrated and embedded in paraffin blocks. For this study, 3-micron sections were cut from each block and placed on pre-cleaned slides (Thermo Fisher Scientific, Waltham, MA, USA). The sectioned tissue slides were covered with a thin layer of paraffin, stoked at 60° C. for 1 hour and stored protected from light at room temperature to preserve the antigenicity of sections. • Immunoblot—For immunoblot analysis, pancreases were immediately frozen in dry ice and stored at −80° C. until use. Tissues were homogenized using a TissueLyser II tissue homogenizer (Qiagen, Hilden, DE), in 200 μL of RIPA lysis buffer at 30 Hz for 3 min. The lysates were clarified by centrifugation (18,000×g, 15 min, 4° C.), and the protein concentration was quantified by the Quantipro™ BCA assay kit (Sigma-Aldrich, St. Louis, MO, US).

[2] = system: KPC FC1242 cells injected in the pancreas; experiment: Orthotopic syngeneic mice model of pancreatic cancer: tumour growth; format: in vivo, C57BL/6J mice
Procedure: FIG. 2. Schematic representation of an orthotopic syngeneic mice model established for the determination of obestatin action on tumoral development. In brief, KPC FC1242 (1×10E6) cells were injected in the pancreas of C57BL/6J mice. After nine days of tumoral growing, the mice were randomly assigned to the different groups (n=4/group) and treated with vehicle [NaCl, 0.9% (w/v)] or obestatin (500 nmol/Kg/72 h) via ALZET® osmotic micropumps for five days. Mice without tumoral cells treatment were utilized as healthy controls.
FIG. 3. Effect of obestatin treatment on tumoral growing. The KPC FC1242 cells (1×10E6) were injected into the pancreas of C57BL/6J mice. After nine days of tumour post-injection, mice were treated with vehicle [NaCl, 0.9% (w/v)] or obestatin (500 nmol/Kg/72 h) via ALZET® osmotic micropumps for five days. Mice without tumoral cells treatment were utilized as healthy controls (n=4). Pancreases/tumours were collected, measured and weighted at day 14 after tumour implantation. Results are expressed as mean mean±SE (*, #, P<0.05). […]
Day 1: Implantation of KPC FC1242 Cells into Mouse Pancreas • 1. […] The cells were kept cold, on ice, until ready to inject. • 2. […] The mouse was monitored until no longer mobile and breathing has slowed. […] Then, the mouse was ready for hair removal. • 3. […]

Which results are given for obestatin?
effect on skeletal muscle weight loss, diaphragm (DIA) ([1]; obestatin 500 nmol/Kg/72 h): No effect; reduction of skeletal muscle weight loss (weight recovery vs vehicle treated mice), extensor digitorum longus (EDL) ([1]; obestatin 500 nmol/Kg/72 h): 62.2±8.1%; reduction of skeletal muscle weight loss (weight recovery vs vehicle treated mice), gastrocnemius (GAS) ([1]; obestatin 500 nmol/Kg/72 h): 10.6±3.2%; reduction of skeletal muscle weight loss (weight recovery vs vehicle treated mice), soleus (SOL) ([1]; obestatin 500 nmol/Kg/72 h): 33.0±7.3%; reduction of skeletal muscle weight loss (weight recovery vs vehicle treated mice), tibialis anterior (TA) ([1]; obestatin 500 nmol/Kg/72 h): 30.8±6.1%; food intake ([1]; obestatin treatment): maintaining food intake; reduction in the pancreatic tumour growing in weight ([2]; mouse obestatin 500 nmol/Kg/72 h via osmotic micropumps for five days, from day 9 after tumour injection): 35.8±6.9%; size and weight of tumours vs control or vehicle-treated groups ([2]; obestatin-treated group, 500 nmol/Kg/72 h): significantly smaller
